Each structure is given as a SMILES string. “And” between values parts separate entries of the source, which are not always exact repeats. Identical values can stand only once.

One data set has as its system V600E mutant B-raf. Kind of data set: Degradation of B-raf in A375 melanoma cells (Western blot). Type of data set: cell-based, human. Conditions: 18 hours, at 0.5 mM and 0.1 mM (so in the source). On the procedure: […] After 18 hours, the cells were lysed with 1× lysis buffer and a western blot was perform, and B-raf was detected with anti-B-raf antibody.
The test system of data set [1] is NCI-H1975 cells (EGFR T790M and L858R). Kind of data set: Cell survival in NCI-H1975 cells (Cell Counting Kit-8). In kind it is cell-based, human. Conditions: Homo sapiens, 72 hours. The method, then: Human lung cancer cell line NCI-H1975 which harbors both the T790M and the L858R mutations in EGFR was obtained from American Type Culture Collection. NCI-H1975 (10,000 cells/well) were cultured in 96-well plates and maintained at 37° C. for several hours. The cells were incubated at 37° C. for 72 hours with various concentrations of compound 226 of the invention, 17AAG or DMAG. 17AAG and DMAG are Hsp90 inhibitors that are currently in clinical trials and are used here as positive controls for Hsp90 inhibition. Cell survival was measured with Cell Counting Kit-8 (Dojindo Laboratories, Cat # CK04).

The next data set deals with A375 cells (B-raf V600E). The data set is described as follows: Cell survival in A375 melanoma cells (Cell Counting Kit-8). Type of data set: cell-based, human. Conditions: Homo sapiens, A-375, 72 hours. The method, then:
Human melanoma cell line, A375 (2×10^6 cells), which contains the V600E mutation in the B-raf protein that confers constitutive […] kinase activity, was obtained from American Type Culture Collection. A375 cells (20,000 cells/well) were cultured in 96-well plates and maintained at 37° C. for several hours. The cells were incubated at 37° C. for 72 hours with various concentrations of compound 226, 17AAG or 17DMAG. 17AAG and 17DMAG are Hsp90 inhibitors that are currently in clinical trials and are used here as positive controls for Hsp90 inhibition. Cell survival was measured with Cell Counting Kit-8 (Dojindo Laboratories, Cat # CK04).

For data set [2], the system named is human malignant melanoma tumor cell line A-375. Kind of data set: A-375 (B-raf V600E) nude mouse xenograft model. In kind it is in vivo, human (xenograft in nude mouse). Conditions: 50 mg/kg i.v. 3 times per week. An excerpt:
The human malignant melanoma cell line, A-375 (ATCC #CRL-1619), was obtained from the American Type Culture Collection (ATCC; Manassas, Va., USA). Growth of this tumor cell line is dependent upon the expression of an activated form of the B-RAF serine/threonine kinase carrying a V600E mutation (K. P. Hoeflich et al., Cancer Res. 66:999-1006, 2006; D. J. Panka et al., Cancer Res. 66:1611-1619, 2006). This is the most frequent genetic abnormality observed in melanoma (N. Dhomen and R. Marais, Curr. Opin. Genet. Dev. 17:31-39, 2007). The cells were cultured in growth media prepared with Dulbecco's Modified Eagle Medium (high glucose), 10% fetal bovine serum (FBS), 1% 100× Penicillin-Streptomycin, 1% 10× sodium pyruvate and 1% 10×MEM non-essential amino acids. FBS was obtained from ATCC and all other reagents were obtained from Invitrogen Corp. (Carlsbad, Calif., USA). […] The supernatant was aspirated and the cell pellet was resuspended in 10 mL of growth media and the cell number determined using a hemocytometer. […]
Tumors were then permitted to develop in vivo until the majority reached 90-160 mm^3 in tumor volume, which required 5-6 weeks following implantation. […] Tumor volumes (V) were calculated by caliper measurement of the width (W), length (L) and thickness (T) of tumors using the following formula: V=0.5236×(L×W×T). […]

Take `CC(C)c1cc(-c2nnc(O)n2-c2ccc3c(ccn3C)c2)c(O)cc1O` [Compound 226, 3-(2,4-di-hydroxy-5-isopropyl-phenyl)-4-(1-methyl-indol-5-yl)-5-hydroxy-[1,2,4] triazole]: the “degradation of V600E mutant B-raf” value with V600E mutant B-raf is on record as “induced degradation”. The values for the IC50 (in data set [1]; in the data set on A375 cells (B-raf V600E)) were 16 nM and 4 nM, respectively. Besides, the “average bodyweight gain relative to the start of the study” value in data set [2] (day 60) was 2.7% (+/−1.1 SEM) and 2.7% (+/1.1 SEM). The “% T/C value” in data set [2] (nude mice, 8 doses, day 63) is recorded as 17%.

For the origin of these results see patent US20080004266A1, “Method for treating proliferative disorders associated with protooncogene products” (priority 2006, published 2008).
